We go through 38 compounds from ChEMBL document CHEMBL1201862, “PubChem BioAssay data set” (2004).

Each structure is given as a SMILES string. The source made the active and inactive calls.

For assay [1], the target named is T1, Cytochrome P450 1A2 (Homo sapiens, UniProt P05177).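 Further: PubChem cytochrome P450 panel assay, CYP1A2 panel member.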
T1 sequence (P05177 whole entry): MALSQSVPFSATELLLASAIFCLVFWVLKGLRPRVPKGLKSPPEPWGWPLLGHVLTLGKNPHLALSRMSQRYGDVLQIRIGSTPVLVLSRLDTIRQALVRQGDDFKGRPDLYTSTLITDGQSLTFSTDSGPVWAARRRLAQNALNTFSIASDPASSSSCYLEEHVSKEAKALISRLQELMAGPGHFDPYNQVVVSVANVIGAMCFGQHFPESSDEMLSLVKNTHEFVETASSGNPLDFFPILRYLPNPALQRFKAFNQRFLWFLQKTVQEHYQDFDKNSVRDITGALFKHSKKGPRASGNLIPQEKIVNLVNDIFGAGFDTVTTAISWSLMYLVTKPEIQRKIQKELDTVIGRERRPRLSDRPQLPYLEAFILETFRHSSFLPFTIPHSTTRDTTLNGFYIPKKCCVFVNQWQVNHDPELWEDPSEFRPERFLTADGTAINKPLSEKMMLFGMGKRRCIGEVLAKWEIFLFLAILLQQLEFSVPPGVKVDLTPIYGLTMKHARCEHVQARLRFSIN

The nature of assay [2]: microbe, parasite or virus in culture. It counts as functional. The settings on record: Mycobacterium tuberculosis.
Assay [3] has as its target T2, Ubiquitin-conjugating enzyme E2 N (Homo sapiens, UniProt P61088).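 Further: Dose-response confirmation in a TR-FRET assay detecting UBC13-driven polyubiquitin chain formation, inhibition measured.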
T2 sequence (P61088 whole entry): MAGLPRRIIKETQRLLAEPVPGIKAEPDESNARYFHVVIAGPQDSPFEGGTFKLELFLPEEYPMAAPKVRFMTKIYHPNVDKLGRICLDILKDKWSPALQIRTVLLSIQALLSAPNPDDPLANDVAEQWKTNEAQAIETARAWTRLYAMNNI
It counts as functional.

The test system of assay [4] is Streptococcus. Description: GAS UMAA2166 growth inhibition – luminescence, BacTiterGlo, counter-screen for streptokinase expression inhibitor project, dose response (AID 1915).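 Further: potency for reduction of bacterial viability or growth.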 It counts as functional, organism-based. (In general: Counterscreens check selectivity or assay interference.)
For assay [5], the target named is T3, Streptokinase A (Streptococcus pyogenes serotype M1, UniProt P10520).
T3 sequence (P10520 whole entry): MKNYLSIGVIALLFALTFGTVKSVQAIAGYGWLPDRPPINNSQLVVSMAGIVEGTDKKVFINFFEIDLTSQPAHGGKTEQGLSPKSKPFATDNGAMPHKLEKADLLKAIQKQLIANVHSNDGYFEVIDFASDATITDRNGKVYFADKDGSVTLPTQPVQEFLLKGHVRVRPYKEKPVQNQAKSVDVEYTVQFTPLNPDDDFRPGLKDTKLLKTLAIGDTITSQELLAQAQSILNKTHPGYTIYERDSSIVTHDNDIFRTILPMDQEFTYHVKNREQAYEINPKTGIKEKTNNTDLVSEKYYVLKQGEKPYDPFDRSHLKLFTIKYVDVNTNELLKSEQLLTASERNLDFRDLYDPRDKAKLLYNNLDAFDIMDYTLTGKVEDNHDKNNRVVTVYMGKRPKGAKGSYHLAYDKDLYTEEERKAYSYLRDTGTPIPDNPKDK
Description: viability-normalized secreted streptokinase activity reduction – plasminogen activation absorbance, OD405, dose response (AID 1914).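 Further: secreted streptokinase activity via plasminogen activation per viability signal from cell pellet.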 In kind it is functional, Streptococcus pyogenes M1 GAS.

In assay [6] the test system is Streptococcus sp. 'group A'. Description: Streptococcus pyogenes SK(-)GAS viability under kanamycin – luminescence, BacTiterGlo, confirmation, counter-screen for streptokinase expression inhibitor project, dose response (AID 1900). In kind it is functional, organism-based.
A short description of assay [7]: Luminescence Cell-Based Dose Confirmation HTS to Identify Inhibitors of Platelet Dense Granule Release. [Related pubchem assays: 1663 (Primary HTS), 1678 (Summary of Project)]. It counts as functional.
The target in assay [8] is Luciferin 4-monooxygenase (Photinus pyralis, UniProt P08659). Description: inhibition of purified Photinus pyralis luciferase – biochemical, luminescence, dose response (AID 1891).
Assay [9] has as its target Cytochrome P450 2C9 (Homo sapiens, UniProt P11712).
For assay [10], the target named is Cytochrome P450 3A4 (Homo sapiens, UniProt P08684).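 Further: CYP3A4 tested as one member of a cytochrome P450 panel screen.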
A short description of assay [11]: luciferase reporter signal suppression in cells – H4 neuroglioma cells, luminescence, dose response (AID 1990). It counts as functional, cell-based. Background: Reporter assays use an easily measured gene product as a stand-in for the process of interest.
The nature of assay [12]: alpha-synuclein stem-loop luciferase translation blockers – H4 neuroglioma cells, luminescence, confirmation (AID 1988). It counts as functional, cell-based.
The nature of assay [13]: Luminescence Cell-Based Dose Response HTS to Identify Inhibitors of 5'UTR Stem-Loop Driven Prion Protein mRNA Translation in H4 Neuroglioblastoma Cells. [Related pubchem assays: 1827 (Project Summary), 1813 (Primary HTS)]. It counts as functional.
Assay [14] has as its target Cytochrome P450 2C19 (Homo sapiens, UniProt P33261). Nature of the assay: Cytochrome panel assay with activity outcomes. Panel member name: p450-cyp2c19 Compounds with AC50 equal or less than 10 uM are considered active. In kind it is functional. The settings on record: read-out: AC50.
The target of assay [15] is Cytochrome P450 2D6 (Homo sapiens, UniProt P10635).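 Further: CYP2D6 member of a cytochrome P450 panel assay.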
A short description of assay [16]: cells. In kind it is functional.

Luciferin 4-monooxygenase, sequence (P08659 whole entry): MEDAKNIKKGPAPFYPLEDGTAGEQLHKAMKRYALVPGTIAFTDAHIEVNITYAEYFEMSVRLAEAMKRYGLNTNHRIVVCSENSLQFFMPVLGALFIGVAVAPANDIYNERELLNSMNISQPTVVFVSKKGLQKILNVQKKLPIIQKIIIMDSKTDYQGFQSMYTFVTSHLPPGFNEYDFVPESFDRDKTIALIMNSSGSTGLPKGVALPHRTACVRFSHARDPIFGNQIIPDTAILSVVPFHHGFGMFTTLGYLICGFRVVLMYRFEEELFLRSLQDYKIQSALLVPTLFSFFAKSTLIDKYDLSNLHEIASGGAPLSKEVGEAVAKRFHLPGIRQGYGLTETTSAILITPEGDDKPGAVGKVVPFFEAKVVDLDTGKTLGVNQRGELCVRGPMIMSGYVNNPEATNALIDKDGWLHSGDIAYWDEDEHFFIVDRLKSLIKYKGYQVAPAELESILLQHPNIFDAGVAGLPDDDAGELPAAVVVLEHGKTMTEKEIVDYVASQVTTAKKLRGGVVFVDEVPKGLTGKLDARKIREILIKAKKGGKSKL
Cytochrome P450 2C9, sequence (P11712 whole entry): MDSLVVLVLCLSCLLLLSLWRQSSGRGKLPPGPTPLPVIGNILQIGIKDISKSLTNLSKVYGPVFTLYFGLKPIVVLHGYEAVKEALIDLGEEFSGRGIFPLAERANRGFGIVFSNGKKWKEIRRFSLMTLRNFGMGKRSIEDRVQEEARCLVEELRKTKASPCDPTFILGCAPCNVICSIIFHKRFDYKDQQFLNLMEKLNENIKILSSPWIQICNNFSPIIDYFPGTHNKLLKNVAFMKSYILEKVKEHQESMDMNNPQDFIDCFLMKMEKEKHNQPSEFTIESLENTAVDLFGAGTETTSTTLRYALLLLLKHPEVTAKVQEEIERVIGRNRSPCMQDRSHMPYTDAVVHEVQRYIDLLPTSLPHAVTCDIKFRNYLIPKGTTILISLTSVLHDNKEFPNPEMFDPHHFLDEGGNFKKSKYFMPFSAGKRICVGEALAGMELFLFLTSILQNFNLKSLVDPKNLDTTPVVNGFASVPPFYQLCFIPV
Cytochrome P450 3A4, sequence (P08684 whole entry): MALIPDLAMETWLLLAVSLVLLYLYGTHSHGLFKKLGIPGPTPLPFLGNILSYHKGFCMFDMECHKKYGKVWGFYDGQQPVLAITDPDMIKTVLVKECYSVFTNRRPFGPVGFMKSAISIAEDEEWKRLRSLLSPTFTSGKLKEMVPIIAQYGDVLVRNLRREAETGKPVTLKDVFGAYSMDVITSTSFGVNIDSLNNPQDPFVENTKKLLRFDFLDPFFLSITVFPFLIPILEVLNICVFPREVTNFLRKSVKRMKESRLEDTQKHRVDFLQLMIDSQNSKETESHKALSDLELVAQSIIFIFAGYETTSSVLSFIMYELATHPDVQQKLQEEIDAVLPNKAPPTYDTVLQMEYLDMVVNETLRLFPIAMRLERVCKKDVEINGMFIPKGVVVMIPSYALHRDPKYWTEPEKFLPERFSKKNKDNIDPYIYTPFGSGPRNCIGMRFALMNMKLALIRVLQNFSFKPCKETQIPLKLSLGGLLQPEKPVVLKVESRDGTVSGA
Cytochrome P450 2D6, sequence (P10635 whole entry): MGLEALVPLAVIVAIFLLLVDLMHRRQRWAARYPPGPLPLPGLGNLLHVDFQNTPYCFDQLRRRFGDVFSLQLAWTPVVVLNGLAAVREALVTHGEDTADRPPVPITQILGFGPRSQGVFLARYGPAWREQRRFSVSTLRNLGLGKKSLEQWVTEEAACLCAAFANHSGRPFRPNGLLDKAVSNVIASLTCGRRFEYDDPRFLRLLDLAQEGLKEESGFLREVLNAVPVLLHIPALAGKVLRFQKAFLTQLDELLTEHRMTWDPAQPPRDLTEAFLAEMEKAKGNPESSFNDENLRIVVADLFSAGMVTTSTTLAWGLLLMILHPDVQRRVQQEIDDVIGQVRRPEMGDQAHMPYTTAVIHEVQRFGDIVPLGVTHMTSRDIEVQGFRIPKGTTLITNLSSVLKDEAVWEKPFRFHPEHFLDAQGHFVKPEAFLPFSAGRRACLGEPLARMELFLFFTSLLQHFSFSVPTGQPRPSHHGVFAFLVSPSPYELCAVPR
Cytochrome P450 2C19, sequence (P33261 whole entry): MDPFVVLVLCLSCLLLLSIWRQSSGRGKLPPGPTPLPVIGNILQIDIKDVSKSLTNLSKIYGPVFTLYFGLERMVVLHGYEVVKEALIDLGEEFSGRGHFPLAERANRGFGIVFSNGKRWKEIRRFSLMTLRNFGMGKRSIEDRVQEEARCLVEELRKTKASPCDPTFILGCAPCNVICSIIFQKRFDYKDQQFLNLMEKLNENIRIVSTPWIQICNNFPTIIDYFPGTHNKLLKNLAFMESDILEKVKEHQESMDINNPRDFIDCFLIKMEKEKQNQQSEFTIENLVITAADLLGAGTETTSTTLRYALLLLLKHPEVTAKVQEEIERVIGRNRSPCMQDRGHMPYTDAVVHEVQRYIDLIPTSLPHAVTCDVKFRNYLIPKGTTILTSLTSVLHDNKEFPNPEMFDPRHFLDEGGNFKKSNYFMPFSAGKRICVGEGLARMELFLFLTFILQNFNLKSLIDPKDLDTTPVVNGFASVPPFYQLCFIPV

For `COc1ccc(C(=O)N2CC3(CC(c4cccc([N+](=O)[O-])c4)=NO3)C[C@H]2C(=O)NCC(N)=O)cc1` (stereo partly drawn), the AC50 – broadly, the concentration at which the activity in the assay is half-maximal – in [1] was 28.2 µM (inconclusive).

Take `CCN(C[C@H]1N[C@@](Cc2ccccc2)(C(=O)OC)[C@H]2C(=O)N(Cc3ccccc3)C(=O)[C@@H]12)C(=O)Nc1ccc(C(F)(F)F)cc1`: in assay [2], the CC50 was 39.5 µM (active).

`COc1cc2sc(-c3ccc(S(C)(=O)=O)cc3)c(C(=O)NCCCCO)c2cc1OC`: the IC50 (usually the concentration needed to halve the response being measured) in assay [3] is > 20 µM (inactive).

With `CCc1cc(C(=O)N2CCCC(CCC(=O)NCc3cccc(OC)c3)C2)no1` (stereo not drawn), the EC50 in assay [4], in assay [5] and in assay [6] was > 150 µM (not active) each time.

`O=C(O)C=Cc1ccc(Cn2ccnc2)cc1`: the AC50 in assay [1] is 31.6 µM (inconclusive).

Turning to `CC1(C)CC(=O)C2=C(C1)N(c1ccccc1)C(=O)CC2c1ccsc1` (stereo not drawn), the EC50 in assay [7] and in assay [8] was > 112 µM (not active) in each case.

On to `CCCC(/C=C/c1ccc(OC(C)=O)cc1)=C1/c2ccccc2C(=O)N1c1ccccc1`, for which the CC50 in assay [2] is 12.8 µM (active).

As for `COc1ccc(Nc2cc3n(c(=O)n2)CCc2cc(OC)c(OC)cc2-3)cc1`, the values for the 50% effective concentration (EC50) in [7] and in assay [8] were 4.68 µM (active) and > 112 µM (not active), respectively.

Regarding `CS(=O)(=O)N1CCC[C@@]2(CCN(c3ccccc3)C2)C1`, the half-maximal activity concentration (AC50) is 31.6 µM (inconclusive) in assay [1] and 25.1 µM (inconclusive) in assay [9].

Regarding `COc1ccc(C(=O)Nc2ccc(Cl)cc2C(=O)NCCN2CCOCC2)cc1`, the AC50 in assay [1] was 22.4 µM (inconclusive).

Consider `Nc1ncnc2c1ncn2C1CCCC1`, for which the AC50 in assay [1] is 20 µM (inconclusive); in [10], 0.0398 µM (inconclusive).

Consider `Nc1ccn([C@@H]2O[C@H](CO)[C@@H](O)C2O)c(=O)n1` (stereo partly drawn) [CYTARABINE], for which the CC50 in assay [2] was 1.8 µM (active).

For the compound `C[N+](C)(CCCOc1ccccc1)c1ccccc1.O=C([O-])c1cc2ccccc2cc1O`, the AC50 in assay [1] is 12.6 µM (inconclusive).

On to `CCOCCN1CCN(c2c(CC)c(C)nc3cc(-c4cc(OC)cc(OC)c4)nn23)CC1`, for which, in assay [2], the CC50 was > 40 µM (active).

As for `O=C(Nc1cccnc1)c1cc(-c2ccc(Cl)c(Cl)c2)on1`, the EC50 in [7] and in assay [8] was > 112 µM (not active) each time.

For `COc1ccc(-c2cc(C(F)(F)F)nc(SCC(=O)NCCN3CCOCC3)n2)cc1OC`, the figures for the concentration giving a half-maximal response (EC50) in assay [7] and in [8] were 47.9 µM (active) and > 112 µM (not active), respectively.

Take `CN1C[C@H](C(=O)N[C@@]2(C)O[C@@]3(O)[C@H]4CCCN4C(=O)[C@@H](Cc4ccccc4)N3C2=O)C=C2c3cccc4[nH]cc(c34)C[C@@H]21`: the AC50 in assay [1] is 3.16 µM (inconclusive).

For the compound `COc1ccc(Nc2cc3n(c(=O)n2)CCc2cc(OC)c(OC)cc2-3)c(C)c1`, the EC50 (in general, the concentration giving half of the maximal effect) in [11] is 17.3 µM (active); in [7] it was 0.987 µM (active); in assay [12], 35.6 µM (active); in [8], > 112 µM (not active); in assay [13] it was 41.3 µM (active).

As for `CCOc1ccccc1Nc1cc2n(c(=O)n1)CCc1cc(OC)c(OC)cc1-2`, the EC50 in [11] was 47.8 µM (active); in assay [7], 1.23 µM (active); in assay [12], 9.81 µM (active); in assay [8], > 112 µM (not active); in assay [13], 30.7 µM (active).

`C#CCOCCOCCOCCNc1nc(N2CCOCC2)nc(N2CCN(C(=O)CCCCCCCCCCNC(=O)[C@H]([C@@H](C)CC)n3cc(CCCCN=C(N)N)nn3)CC2)n1`: the IC50 in assay [3] was > 20 µM (inactive).

As for `CCCc1cc(=O)oc2cc(OCC(=O)N3CCc4ccccc43)ccc12`, the EC50 in [7] and in assay [8] was > 112 µM (not active) throughout. Moreover, the AC50 in [14] is 1 µM (inconclusive).

For `CN(C)C=O.CNC(=O)CSc1nc2nc(C)cc(C)n2n1`, the EC50 in [7] and in [8] was > 112 µM (not active) throughout.

Take `C=C(C)COc1ccc(-c2n[nH]c(C)c2-c2ccccc2)c(O)c1`: in [5], the EC50 was 7.78 µM (active).

With `Cc1ccc(-c2csc3ncnc(Nc4ccc(N5CCOCC5)cc4)c23)cc1`, the CC50 in [2] is > 40 µM (active).

Take `CCCCc1ccc(NC(S)=NCCc2ccc(F)cc2)cc1`: the EC50 in assay [4] was > 150 µM (not active); in assay [5] it was 45 µM (active).

Regarding `CC[N+](CC)(CCCNC1=CC(=O)C(NCCC[N+](CC)(CC)Cc2ccccc2)=CC1=O)Cc1ccccc1` [BENZOQUINONIUM], the AC50 in assay [1] is 31.6 µM (inconclusive).

`COc1ccccc1/C=C/CN1CCCC(CO)(Cc2cccc(Cl)c2)C1` (stereo not drawn): the EC50 in assay [7] and in assay [8] was > 112 µM (not active) in each case.

On to `c1ccc2c(C[C@@H]3CNCCN3CC3CCCCC3)cccc2c1`, for which the IC50 in assay [3] was > 20 µM (inactive).

As to `CCn1cc([N+](=O)[O-])c(C(=O)N2N=C(c3ccc4ccccc4c3)CC2c2ccccc2O)n1` (stereo not drawn), in assay [2], the CC50 is 33.1 µM (active).

As for `NC(=O)C1(N2CCCCC2)CCN(C(=O)Nc2ccccc2C(F)(F)F)CC1`, the EC50 in [7] and in [8] was > 112 µM (not active) in each case.

`COCCn1c(=O)c(-c2cn(C)c3ccccc23)nc2cnc(N3CCNCC3)nc21`: in assay [1], the AC50 was 12.6 µM (inconclusive).

On to `CCc1ccccc1NC(=O)C1C(c2ccccc2)C1(Cl)Cl` (stereo not drawn), for which the concentration at half-maximal activity (AC50) in [1] is 17.8 µM (inconclusive); in assay [15], 11.2 µM (inconclusive); in assay [9], 20 µM (inconclusive).

Regarding `COc1cc2c(C(=O)N3CCN(c4cccc(Cl)c4)CC3)cn(CC(C)C)c(=O)c2cc1OC`, in [2], the CC50 was > 40 µM (active).

As to `O=C(NCc1ccccc1)C(c1cccnc1)N(C(=O)c1ccccn1)c1ccccc1F` (stereo not drawn), the EC50 in assay [7] and in assay [8] was > 112 µM (not active) throughout.

As to `O=C(Cn1cnc2c(oc3nc4c(cc32)CCCC4)c1=O)Nc1cccc(Cl)c1`, the EC50 was 13 µM (active) in assay [11], 10.2 µM (active) in assay [12] and > 120 µM (not active) in [13].

Turning to `CC(C)(C)c1ccc(OCCCC(=O)NC2=NCCS2)cc1`, the EC50 is > 150 µM (not active) in [4], > 150 µM (not active) in assay [5] and 19.8 µM (active) in [6]. Also, the IC50 in assay [16] is 20.1 µM (active).

With `C/C1=N/NC(=S)NCCCN2CCN(CCCNC(=S)N/N=C(/C)C=NNC(=S)NCCCN3CCN(CCCNC(=S)NN=C1)CC3)CC2`, the AC50 in assay [1] is 3.16 µM (inconclusive).

As to `Clc1cccc(-c2cc3nc4c(c(NCc5ccco5)n3n2)CCCC4)c1`, the CC50 in assay [2] is 23.7 µM (active).
